Reference: ChEMBL document CHEMBL3526091, “Pharmacokinetics, metabolism, and excretion of the glycogen synthase kinase-3 inhibitor LY2090314 in rats, dogs, and humans: a case study in rapid clearance by extensive metabolism with low circulating metabolite exposure” (Drug Metab Dispos, 2013)

How the values were obtained:
[1] = Volume of distribution at steady state in cancer patient at 80 mg for 60 mins treated 1/8 cycle/day; assay type: ADME, organism-based; parameters: dosed compound name LY2090314; settings: human, in vivo, read-out: Vdss
Rattus norvegicus [2] = assay: Total drug recovery in Sprague-Dawley rat at 5 mg/kg, iv administered for 30 mins during 0 to 168 hrs time interval by radio analysis; assay type: ADME, organism-based; parameters: dose 5 mg/kg, dosed compound name [14C]LY2090314, route intravenous; settings: in vivo
[3] = Half life in cancer patient at 120 mg for 60 mins treated 1/8 cycle/day; assay type: ADME, organism-based; parameters: dosed compound name LY2090314; settings: human, in vivo
[4] = Cmax in cancer patient at 60 mg for 60 mins treated 1/1 cycle/day; assay type: ADME, organism-based; parameters: dose 60 mg, dosed compound name LY2090314; settings: human, in vivo
[5] = Half life in cancer patient at 20 mg for 60 mins treated 2/1 cycle/day; assay type: ADME, organism-based; parameters: dosed compound name LY2090314; settings: human, in vivo
[6] = AUC (0 to infinity) in cancer patient at 40 mg for 60 mins treated 1/8 cycle/day; assay type: ADME, organism-based; parameters: dose 40 mg, time infinity, dosed compound name LY2090314; settings: human, plasma
[7] = Cmax in cancer patient at 60 mg for 60 mins treated 1/8 cycle/day; assay type: ADME, organism-based; parameters: dose 60 mg, dosed compound name LY2090314; settings: human, in vivo
[8] = Half life in cancer patient at 80 mg for 60 mins treated 1/1 cycle/day; assay type: ADME, organism-based; parameters: dosed compound name LY2090314; settings: human, in vivo
[9] = Drug recovery in beagle dog urine at 5 mg/kg, iv administered for 30 mins during 0 to 168 hrs time interval by radio analysis; assay type: ADME, organism-based, Canis lupus familiaris; parameters: dose 5 mg/kg, dosed compound name [14C]LY2090314, route intravenous; settings: in vivo
[10] = Cmax in beagle dog at 5 mg/kg, iv administered for 30 mins; assay type: ADME, organism-based, Canis lupus familiaris; parameters: dose 5 mg/kg, dosed compound name [14C]LY2090314, route intravenous; settings: in vivo
[11] = Cmax in cancer patient at 20 mg for 60 mins treated 1/1 cycle/day; assay type: ADME, organism-based; parameters: dose 20 mg, dosed compound name LY2090314; settings: human, in vivo
[12] = Tmax in cancer patient at 40 mg for 60 mins treated 1/1 cycle/day; assay type: ADME, organism-based; parameters: dosed compound name LY2090314; settings: human, in vivo
[13] = Volume of distribution at steady state in cancer patient at 40 mg for 60 mins treated 1/1 cycle/day; assay type: ADME, organism-based; parameters: dosed compound name LY2090314; settings: human, in vivo, read-out: Vdss
[14] = AUC (0 to infinity) in beagle dog at 5 mg/kg, iv administered for 30 mins; assay type: ADME, organism-based, Canis lupus familiaris; parameters: time infinity, dose 5 mg/kg, dosed compound name [14C]LY2090314, route intravenous; settings: plasma
[15] = AUC (0 to infinity) in cancer patient at 20 mg for 60 mins treated 2/1 cycle/day; assay type: ADME, organism-based; parameters: dose 20 mg, time infinity, dosed compound name LY2090314; settings: human, plasma
Canis familiaris = assay: Clearance in beagle dog assessed as total radioactivity at 5 mg/kg, iv administered for 30 mins; assay type: ADME, organism-based, Canis lupus familiaris; parameters: dose 5 mg/kg, dosed compound name [14C]LY2090314, route intravenous; settings: in vivo, 0.5 h
[16] = AUC (0 to infinity) in cancer patient at 80 mg for 60 mins treated 1/1 cycle/day; assay type: ADME, organism-based; parameters: dose 80 mg, time infinity, dosed compound name LY2090314; settings: human, plasma
[17] = Volume of distribution at steady state in cancer patient at 60 mg for 60 mins treated 1/1 cycle/day; assay type: ADME, organism-based; parameters: dosed compound name LY2090314; settings: human, in vivo, read-out: Vdss
[18] = Clearance in cancer patient at 20 mg for 60 mins treated 1/1 cycle/day; assay type: ADME, organism-based; parameters: dosed compound name LY2090314; settings: human, in vivo
[19] = Clearance in beagle dog at 5 mg/kg, iv administered for 30 mins; assay type: ADME, organism-based, Canis lupus familiaris; parameters: dose 5 mg/kg, dosed compound name [14C]LY2090314, route intravenous; settings: in vivo
[20] = Drug recovery in bile duct-intact beagle dog assessed as radioactivity in feces during 0 to 48 hrs at 5 mg/kg, iv administered for 30 mins; assay type: ADME, organism-based, Canis lupus familiaris; parameters: dose 5 mg/kg, dosed compound name [14C]LY2090314, route intravenous; settings: in vivo
[21] = Drug metabolism in Mdr1a knockout Sprague-Dawley rat urine at 5 mg/kg, iv administered for 30 mins; assay type: ADME, organism-based; parameters: dose 5 mg/kg, dosed compound name LY2090314, route intravenous; settings: in vivo, 0.5 h
[22] = Clearance in cancer patient kidney at 80 to 120 mg for 60 mins; assay type: ADME, organism-based; parameters: dosed compound name LY2090314; settings: human, in vivo
[23] = AUC (0 to infinity) in cancer patient at 20 mg for 60 mins treated 1/1 cycle/day; assay type: ADME, organism-based; parameters: dose 20 mg, time infinity, dosed compound name LY2090314; settings: human, plasma
Rattus norvegicus [24] = assay: Clearance in Sprague-Dawley rat assessed as total radioactivity at 5 mg/kg, iv administered for 30 mins; assay type: ADME, organism-based; parameters: dose 5 mg/kg, dosed compound name [14C]LY2090314, route intravenous; settings: in vivo, 0.5 h
[25] = Cmax in cancer patient at 20 mg for 60 mins treated 2/1 cycle/day; assay type: ADME, organism-based; parameters: dose 20 mg, dosed compound name LY2090314; settings: human, in vivo

With `O=C1NC(=O)C(c2cnc3ccccn23)=C1c1cn2c3c(cc(F)cc13)CN(C(=O)N1CCCCC1)CC2` [LY-2090314] as the molecule, how does the Vd [1] read?
The Vd was 66 L.

What about the Radiolabel recovery (Rattus norvegicus [2]) of the same molecule?
Its Radiolabel recovery is 97.7%.

And the half-life [3]?
The half-life was 3.05 h.

What about the Cmax [4] of the same molecule?
The Cmax was 881 ng/mL.

What about the half-life [5] of the same molecule?
Its half-life is 1.92 h.

And the AUC(0-inf) [6]?
The AUC(0-inf) was 938 ng·h/mL.

What about the Cmax [7] of the same molecule?
The Cmax was 1040 ng/mL.

And the half-life [8]?
Its half-life is 2.57 h.

What about the Radiolabel recovery [9] of the same molecule?
Its Radiolabel recovery is 20.6%.

And the Cmax [10]?
Its Cmax is 5090 ng/mL.

And the Cmax [11]?
The Cmax was 246 ng/mL.

And the Tmax [12]?
Its Tmax is 0.98 h.

And the Vd [13]?
The Vd was 79.3 L.

What about the AUC(0-inf) [14] of the same molecule?
Its AUC(0-inf) is 3230 ng·h/mL.

What about the AUC(0-inf) [15] of the same molecule?
Its AUC(0-inf) is 404 ng·h/mL.

And the CL (Canis familiaris)?
Its CL is 5.62 mL/min/kg.

And the AUC(0-inf) [16]?
The AUC(0-inf) was 1870 ng·h/mL.

What about the Vd [17] of the same molecule?
The Vd was 76.8 L.

What about the clearance [18] of the same molecule?
The clearance was 782 mL/min.

What about the clearance [19] of the same molecule?
Its clearance is 27.9 mL/min/kg.

What about the Radiolabel recovery [20] of the same molecule?
Its Radiolabel recovery is 4.1%.

And the Drug metabolism [21]?
The Drug metabolism was “metabolite_detected”.

What about the CL renal at 1 h [22] of the same molecule?
Its CL renal at 1 h is 14.2 mL/min.

And the AUC(0-inf) [23]?
The AUC(0-inf) was 427 ng·h/mL.

And the CL (Rattus norvegicus [24])?
The CL was 40.5 mL/min/kg.

And the Cmax [25]?
Its Cmax is 271 ng/mL.
